Experimental data published in PubChem BioAssay (NCI).
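1) Cells in 96-well plates. 2) Compound, 48 h, 5 concentrations. 3) Linear interpolation between surrounding doses. 4) Unreached endpoint = highest concentration. Definition used: TGI = concentration required for complete inhibition of growth.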

What was measured:
Experiment in all cases: inhibition of tumour cell growth, NCI panel, 48 h
786-0 renal = system: 786-0 renal
A498 renal = system: A498 renal
A549 NSCLC = system: A549 NSCLC
ACHN renal = system: ACHN renal
BT-549 breast = system: BT-549 breast
CAKI-1 renal = system: CAKI-1 renal
CCRF-CEM leukemia = system: CCRF-CEM leukemia
COLO 205 colon = system: COLO 205 colon
DU-145 prostate = system: DU-145 prostate
EKVX NSCLC = system: EKVX NSCLC
HCC-2998 colon = system: HCC-2998 colon
HCT-116 colon = system: HCT-116 colon
HCT-15 colon = system: HCT-15 colon
HL-60(TB) leukemia = system: HL-60(TB) leukemia
HOP-92 NSCLC = system: HOP-92 NSCLC
HS 578T breast = system: HS 578T breast
HT29 colon = system: HT29 colon
IGROV1 ovarian = system: IGROV1 ovarian
K-562 leukemia = system: K-562 leukemia
KM12 colon = system: KM12 colon
LOX IMVI melanoma = system: LOX IMVI melanoma
M14 melanoma = system: M14 melanoma
MALME-3M melanoma = system: MALME-3M melanoma
MCF7 breast = system: MCF7 breast
MDA-MB-231 breast = system: MDA-MB-231 breast
MDA-MB-435 = system: MDA-MB-435
MDA-N = system: MDA-N
MOLT-4 leukemia = system: MOLT-4 leukemia
NCI-H226 lung = system: NCI-H226 lung
NCI-H23 lung = system: NCI-H23 lung
NCI-H522 lung = system: NCI-H522 lung
NCI/ADR-RES ovarian = system: NCI/ADR-RES ovarian
OVCAR-3 ovarian = system: OVCAR-3 ovarian
OVCAR-4 ovarian = system: OVCAR-4 ovarian
OVCAR-5 ovarian = system: OVCAR-5 ovarian
OVCAR-8 ovarian = system: OVCAR-8 ovarian
PC-3 prostate = system: PC-3 prostate
RPMI-8226 leukemia = system: RPMI-8226 leukemia
SF-268 CNS = system: SF-268 CNS
SF-539 CNS = system: SF-539 CNS
SK-MEL-2 melanoma = system: SK-MEL-2 melanoma
SK-MEL-28 melanoma = system: SK-MEL-28 melanoma
SK-MEL-5 melanoma = system: SK-MEL-5 melanoma
SK-OV-3 ovarian = system: SK-OV-3 ovarian
SNB-19 CNS = system: SNB-19 CNS
SNB-75 CNS = system: SNB-75 CNS
SR leukemia = system: SR leukemia
SW-620 colon = system: SW-620 colon
TK-10 renal = system: TK-10 renal
U251 CNS = system: U251 CNS
UACC-257 melanoma = system: UACC-257 melanoma
UACC-62 melanoma = system: UACC-62 melanoma
UO-31 renal = system: UO-31 renal
HOP-62 NSCLC = system: HOP-62 NSCLC
NCI-H460 lung = system: NCI-H460 lung
RXF 393 renal = system: RXF 393 renal
SF-295 CNS = system: SF-295 CNS
SN12C renal = system: SN12C renal
T-47D breast = system: T-47D breast

For COC(=O)c1ccc(NCc2cc(OC)ccc2OC)cc1, the TGI (786-0 renal) was over 100 µM, the TGI (A498 renal) was 78.8 µM and the TGI (A549 NSCLC) was over 100 µM. The TGI (ACHN renal) was over 100 µM, the TGI (BT-549 breast) was over 100 µM and the TGI (CAKI-1 renal) was over 100 µM. For the same molecule, the TGI (CCRF-CEM leukemia) was over 100 µM, the TGI (COLO 205 colon) was over 100 µM and the TGI (DU-145 prostate) was over 100 µM. It also gave a TGI (EKVX NSCLC) of over 100 µM, a TGI (HCC-2998 colon) of over 100 µM and a TGI (HCT-116 colon) of over 100 µM. The TGI (HCT-15 colon) was over 100 µM, the TGI (HL-60(TB) leukemia) was over 100 µM and the TGI (HOP-92 NSCLC) was over 100 µM. For the same molecule, the TGI (HS 578T breast) was over 100 µM, the TGI (HT29 colon) was over 100 µM and the TGI (IGROV1 ovarian) was over 100 µM. It also gave a TGI (K-562 leukemia) of over 100 µM, a TGI (KM12 colon) of over 100 µM and a TGI (LOX IMVI melanoma) of over 100 µM. It also gave a TGI (M14 melanoma) of over 100 µM, a TGI (MALME-3M melanoma) of over 100 µM and a TGI (MCF7 breast) of over 100 µM. For the same molecule, the TGI (MDA-MB-231 breast) was over 100 µM, the TGI (MDA-MB-435) was over 100 µM and the TGI (MDA-N) was over 100 µM. The TGI (MOLT-4 leukemia) was over 100 µM, the TGI (NCI-H226 lung) was over 100 µM and the TGI (NCI-H23 lung) was over 100 µM. It also gave a TGI (NCI-H522 lung) of over 100 µM, a TGI (NCI/ADR-RES ovarian) of over 100 µM and a TGI (OVCAR-3 ovarian) of over 100 µM. For the same molecule, the TGI (OVCAR-4 ovarian) was over 100 µM, the TGI (OVCAR-5 ovarian) was over 100 µM and the TGI (OVCAR-8 ovarian) was over 100 µM. For the same molecule, the TGI (PC-3 prostate) was over 100 µM, the TGI (RPMI-8226 leukemia) was over 100 µM and the TGI (SF-268 CNS) was over 100 µM. It also gave a TGI (SF-539 CNS) of over 100 µM, a TGI (SK-MEL-2 melanoma) of over 100 µM and a TGI (SK-MEL-28 melanoma) of over 100 µM. The TGI (SK-MEL-5 melanoma) was over 100 µM, the TGI (SK-OV-3 ovarian) was over 100 µM and the TGI (SNB-19 CNS) was over 100 µM. For the same molecule, the TGI (SNB-75 CNS) was over 100 µM, the TGI (SR leukemia) was over 100 µM and the TGI (SW-620 colon) was over 100 µM. It also gave a TGI (TK-10 renal) of over 100 µM, a TGI (U251 CNS) of over 100 µM and a TGI (UACC-257 melanoma) of over 100 µM. For the same molecule, the TGI (UACC-62 melanoma) was over 100 µM and the TGI (UO-31 renal) was over 100 µM.

Work on O=[N+]([O-])c1ncc(N(CCO)CCO)s1 yielded a TGI (786-0 renal) of over 100 µM, a TGI (A498 renal) of over 100 µM and a TGI (ACHN renal) of over 100 µM. For the same molecule, the TGI (BT-549 breast) was 80.6 µM, the TGI (CAKI-1 renal) was over 100 µM and the TGI (CCRF-CEM leukemia) was 56.9 µM. It also gave a TGI (COLO 205 colon) of 49.6 µM, a TGI (DU-145 prostate) of over 100 µM and a TGI (EKVX NSCLC) of over 100 µM. It also gave a TGI (HCC-2998 colon) of over 100 µM, a TGI (HCT-116 colon) of over 100 µM and a TGI (HCT-15 colon) of over 100 µM. The TGI (HL-60(TB) leukemia) was 40.7 µM, the TGI (HOP-62 NSCLC) was over 100 µM and the TGI (HS 578T breast) was over 100 µM. It also gave a TGI (HT29 colon) of over 100 µM, a TGI (K-562 leukemia) of 57.5 µM and a TGI (KM12 colon) of over 100 µM. It also gave a TGI (LOX IMVI melanoma) of 31.9 µM, a TGI (M14 melanoma) of over 100 µM and a TGI (MALME-3M melanoma) of 36.3 µM. For the same molecule, the TGI (MCF7 breast) was over 100 µM, the TGI (MDA-MB-231 breast) was over 100 µM and the TGI (MDA-MB-435) was over 100 µM. For the same molecule, the TGI (MDA-N) was over 100 µM, the TGI (MOLT-4 leukemia) was over 100 µM and the TGI (NCI-H226 lung) was over 100 µM. The TGI (NCI-H23 lung) was over 100 µM, the TGI (NCI-H460 lung) was over 100 µM and the TGI (NCI-H522 lung) was 35.6 µM. For the same molecule, the TGI (OVCAR-3 ovarian) was over 100 µM, the TGI (OVCAR-4 ovarian) was over 100 µM and the TGI (OVCAR-5 ovarian) was over 100 µM. For the same molecule, the TGI (OVCAR-8 ovarian) was over 100 µM, the TGI (PC-3 prostate) was over 100 µM and the TGI (RPMI-8226 leukemia) was 44.8 µM. For the same molecule, the TGI (RXF 393 renal) was 33.4 µM, the TGI (SF-268 CNS) was over 100 µM and the TGI (SF-295 CNS) was over 100 µM. The TGI (SF-539 CNS) was 30.7 µM, the TGI (SK-MEL-2 melanoma) was 45.3 µM and the TGI (SK-MEL-28 melanoma) was 33.2 µM. The TGI (SK-OV-3 ovarian) was over 100 µM, the TGI (SN12C renal) was over 100 µM and the TGI (SNB-19 CNS) was over 100 µM. The TGI (SNB-75 CNS) was over 100 µM, the TGI (SR leukemia) was over 100 µM and the TGI (SW-620 colon) was over 100 µM. The TGI (T-47D breast) was 81.8 µM, the TGI (TK-10 renal) was 79.5 µM and the TGI (U251 CNS) was over 100 µM. The TGI (UACC-257 melanoma) was 71.4 µM, the TGI (UACC-62 melanoma) was 43.7 µM and the TGI (UO-31 renal) was over 100 µM.

With O=c1[nH]c(NCc2cccnc2)nc2nc[nH]c12 the TGI (786-0 renal) was over 100 µM, the TGI (A498 renal) was over 100 µM and the TGI (A549 NSCLC) was over 100 µM. For the same molecule, the TGI (ACHN renal) was over 100 µM, the TGI (BT-549 breast) was over 100 µM and the TGI (CAKI-1 renal) was over 100 µM. The TGI (CCRF-CEM leukemia) was over 100 µM, the TGI (COLO 205 colon) was over 100 µM and the TGI (DU-145 prostate) was over 100 µM. It also gave a TGI (EKVX NSCLC) of over 100 µM, a TGI (HCC-2998 colon) of over 100 µM and a TGI (HCT-116 colon) of over 100 µM. For the same molecule, the TGI (HCT-15 colon) was over 100 µM, the TGI (HOP-62 NSCLC) was over 100 µM and the TGI (HOP-92 NSCLC) was over 100 µM. It also gave a TGI (HS 578T breast) of over 100 µM, a TGI (HT29 colon) of over 100 µM and a TGI (IGROV1 ovarian) of over 100 µM. For the same molecule, the TGI (K-562 leukemia) was over 100 µM, the TGI (KM12 colon) was over 100 µM and the TGI (LOX IMVI melanoma) was over 100 µM. The TGI (M14 melanoma) was over 100 µM, the TGI (MALME-3M melanoma) was over 100 µM and the TGI (MCF7 breast) was over 100 µM. For the same molecule, the TGI (MDA-MB-231 breast) was over 100 µM, the TGI (MDA-MB-435) was over 100 µM and the TGI (MDA-N) was over 100 µM. The TGI (MOLT-4 leukemia) was over 100 µM, the TGI (NCI-H226 lung) was over 100 µM and the TGI (NCI-H23 lung) was over 100 µM. It also gave a TGI (NCI-H460 lung) of over 100 µM, a TGI (NCI-H522 lung) of over 100 µM and a TGI (NCI/ADR-RES ovarian) of over 100 µM. For the same molecule, the TGI (OVCAR-3 ovarian) was over 100 µM, the TGI (OVCAR-4 ovarian) was over 100 µM and the TGI (OVCAR-5 ovarian) was over 100 µM. It also gave a TGI (OVCAR-8 ovarian) of over 100 µM, a TGI (PC-3 prostate) of over 100 µM and a TGI (RPMI-8226 leukemia) of over 100 µM. It also gave a TGI (RXF 393 renal) of over 100 µM, a TGI (SF-268 CNS) of over 100 µM and a TGI (SF-295 CNS) of over 100 µM. It also gave a TGI (SF-539 CNS) of over 100 µM, a TGI (SK-MEL-2 melanoma) of over 100 µM and a TGI (SK-MEL-5 melanoma) of over 100 µM. It also gave a TGI (SK-OV-3 ovarian) of over 100 µM, a TGI (SN12C renal) of over 100 µM and a TGI (SNB-19 CNS) of over 100 µM. For the same molecule, the TGI (SNB-75 CNS) was over 100 µM, the TGI (SW-620 colon) was over 100 µM and the TGI (T-47D breast) was over 100 µM. It also gave a TGI (TK-10 renal) of over 100 µM, a TGI (U251 CNS) of over 100 µM and a TGI (UACC-257 melanoma) of over 100 µM. The TGI (UACC-62 melanoma) was over 100 µM and the TGI (UO-31 renal) was over 100 µM.
